One assay concerns the target EcFtsZ (Escherichia coli, UniProt P0A9A6). As to the kind of experiment: GTPase assay, malachite green phosphate detection. It counts as biochemical.
In the next assay the target is SaFtsZ (Staphylococcus aureus, UniProt P0A031). Nature of the assay: GTPase assay, malachite green phosphate detection. It counts as biochemical.
For a further assay, the target named is T1, BsFtsZ (Bacillus subtilis, UniProt P17865).
T1 sequence (P17865 1-382): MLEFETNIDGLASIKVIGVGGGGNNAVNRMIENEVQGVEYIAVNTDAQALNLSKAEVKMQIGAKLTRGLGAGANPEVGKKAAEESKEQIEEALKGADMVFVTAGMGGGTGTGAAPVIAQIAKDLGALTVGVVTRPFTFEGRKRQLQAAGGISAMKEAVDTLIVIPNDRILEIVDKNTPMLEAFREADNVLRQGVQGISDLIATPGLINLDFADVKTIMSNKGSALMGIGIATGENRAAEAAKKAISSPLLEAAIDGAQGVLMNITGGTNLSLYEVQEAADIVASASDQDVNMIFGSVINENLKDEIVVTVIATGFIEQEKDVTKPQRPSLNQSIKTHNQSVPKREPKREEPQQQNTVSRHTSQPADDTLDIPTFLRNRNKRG
Nature of the assay: fluorescence anisotropy titration with FtsZ. The assay is classed as binding. On the technique in general: Polarisation of emitted light reports the rotation of a fluorescent probe.

SaFtsZ, sequence (P0A031 whole entry): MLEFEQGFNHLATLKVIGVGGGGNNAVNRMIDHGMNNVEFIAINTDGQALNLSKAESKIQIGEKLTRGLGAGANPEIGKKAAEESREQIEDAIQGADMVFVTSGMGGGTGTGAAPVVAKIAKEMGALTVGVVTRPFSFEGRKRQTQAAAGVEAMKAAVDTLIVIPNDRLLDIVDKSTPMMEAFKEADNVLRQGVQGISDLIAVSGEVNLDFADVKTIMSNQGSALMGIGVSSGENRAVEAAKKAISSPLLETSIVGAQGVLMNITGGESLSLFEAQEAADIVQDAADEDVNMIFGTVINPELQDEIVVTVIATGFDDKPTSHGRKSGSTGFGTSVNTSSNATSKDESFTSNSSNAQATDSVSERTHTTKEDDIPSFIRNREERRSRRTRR
EcFtsZ, sequence (P0A9A6 whole entry): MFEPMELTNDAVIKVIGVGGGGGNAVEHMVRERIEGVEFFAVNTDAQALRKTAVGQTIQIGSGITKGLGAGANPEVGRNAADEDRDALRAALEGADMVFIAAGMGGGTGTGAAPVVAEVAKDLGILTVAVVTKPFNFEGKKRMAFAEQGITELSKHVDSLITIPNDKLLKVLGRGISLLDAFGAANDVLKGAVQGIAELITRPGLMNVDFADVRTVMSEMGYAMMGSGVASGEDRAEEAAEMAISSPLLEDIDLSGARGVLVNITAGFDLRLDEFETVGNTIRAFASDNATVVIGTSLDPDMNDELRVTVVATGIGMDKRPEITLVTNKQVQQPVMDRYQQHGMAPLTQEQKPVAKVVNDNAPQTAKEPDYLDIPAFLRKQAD

In the case of hemi-chrysophaentin [compound 2], the IC50 against EcFtsZ came out at 37 ± 7 µM; against SaFtsZ it was 38 ± 9 µM. For mant-GTP, the Ka entry at BsFtsZ was “(9.9 ± 0.5) × 10^5 (Ka) M^−1”.

A word on the IC50: it is the midpoint of a concentration-inhibition curve. A higher IC50 goes with weaker potency.

(Values after article PMC3768135 (Bioorganic & medicinal chemistry, 2013).)
